{
  "source": "patent US10952976B2",
  "about": "(priority 2018, dated 2021)",
  "key": {"5-HT2B receptor": {"biological_target": "5-HT2B receptor (Homo sapiens, UniProt P41595)", "sequence (P41595 whole entry)": "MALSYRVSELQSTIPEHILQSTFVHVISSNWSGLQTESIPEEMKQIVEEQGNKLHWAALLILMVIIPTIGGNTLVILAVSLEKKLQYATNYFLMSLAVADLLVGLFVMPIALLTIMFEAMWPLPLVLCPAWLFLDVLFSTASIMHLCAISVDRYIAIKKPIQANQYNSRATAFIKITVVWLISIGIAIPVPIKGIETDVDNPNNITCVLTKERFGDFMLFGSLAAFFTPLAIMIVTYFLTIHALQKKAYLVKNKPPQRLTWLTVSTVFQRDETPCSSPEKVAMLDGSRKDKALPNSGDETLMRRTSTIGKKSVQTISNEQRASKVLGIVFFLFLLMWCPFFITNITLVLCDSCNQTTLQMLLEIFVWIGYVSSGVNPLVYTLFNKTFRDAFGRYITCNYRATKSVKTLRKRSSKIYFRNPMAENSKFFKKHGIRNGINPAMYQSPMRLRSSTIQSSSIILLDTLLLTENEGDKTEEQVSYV", "details": "cited from earlier work"}, "[1]": {"test_system": "DBA/1 mice (audiogenic seizures, seizure-induced respiratory arrest)", "assay": "Reversal of FFA's anticonvulsant and S-IRA blocking effects by selective 5-HT receptor antagonists in DBA/1 mice", "format": "in vivo, mouse", "details": "for reversal of S-IRA blocking effect of FFA (reduction in S-IRA incidence) / reversal of anticonvulsant effect of FFA (seizure severity, incidence of tonic seizures): antagonist dose not stated; for reversal of FFA's S-IRA blocking effect: 30 min before AGSz"}, "[2]": {"test_system": "DBA/1 mice (audiogenic seizures, seizure-induced respiratory arrest)", "assay": "Dose- and time-dependent effects of FFA on audiogenic seizures (AGSz) and S-IRA in DBA/1 mice", "format": "in vivo, mouse", "from_the_text": "These studies involved age matched (<80 days) male DBA/1 mice obtained from ENVIGO. […] Starting at postnatal day 23-25, the mice were primed and tested for consistent susceptibility to AGSz and S-IRA by presenting an intense acoustic stimulus, as described previously.\nThe typical seizure semiology in the DBA/1 mice begins with a wild running phase, followed by clonic-tonic seizures and then tonic hind-limb extension that immediately leads to S-IRA during post-ictal behavioral depression (PID). The onset of S-IRA was visually determined by the occurrence of respiratory failure following loss of the righting reflex, relaxation of the pinnae, and then a generalized loss of muscle tone. These behaviors are reliable indicators of imminent sudden death in DBA mice. […] The mice were placed in a supine position, and a polyethylene tube (4.4 mm external diameter) connected to the outflow of a rodent respirator (Harvard Apparatus 680), pumping one cc of room air at 200 strokes/min, was the placed over the nostrils, which produced observable displacement of the chest. […] The mice were monitored until they regained the righting reflex and then returned to their home cage. Video recordings of seizure behaviors and recovery were made for off-line evaluation and analysis, including the duration of PID, as indicated by time from muscle tone loss to return of the righting reflex.\nThe videos of seizure behaviors were analyzed visually, and the incidence (frequency) of AGSz, seizure severity, and incidence (frequency) of S-IRA following drug treatment were compared statistically to vehicle controls using the Chi-square, Mann-Whitney U or paired samples t-test with SPSS software. The ED50 was calculated using SigmaPlot 13 and Microsoft® Excel. The experimental protocols used in these studies were approved by the Laboratory Animal Care and Use Committee of Southern Illinois University School of Medicine, which are in accordance with National Institutes of Health guidelines for the care and use of laboratory animals. Measures to minimize animal usage as well as pain and discomfort were included in these procedures.\nThe incidence of S-IRA and tonic seizures were analyzed Chi-square test with a significance level set at p<0.05."}, "5-HT2C receptor": {"biological_target": "T1, 5-HT2C receptor (Homo sapiens, UniProt P28335)", "T1 sequence (P28335 33-458)": "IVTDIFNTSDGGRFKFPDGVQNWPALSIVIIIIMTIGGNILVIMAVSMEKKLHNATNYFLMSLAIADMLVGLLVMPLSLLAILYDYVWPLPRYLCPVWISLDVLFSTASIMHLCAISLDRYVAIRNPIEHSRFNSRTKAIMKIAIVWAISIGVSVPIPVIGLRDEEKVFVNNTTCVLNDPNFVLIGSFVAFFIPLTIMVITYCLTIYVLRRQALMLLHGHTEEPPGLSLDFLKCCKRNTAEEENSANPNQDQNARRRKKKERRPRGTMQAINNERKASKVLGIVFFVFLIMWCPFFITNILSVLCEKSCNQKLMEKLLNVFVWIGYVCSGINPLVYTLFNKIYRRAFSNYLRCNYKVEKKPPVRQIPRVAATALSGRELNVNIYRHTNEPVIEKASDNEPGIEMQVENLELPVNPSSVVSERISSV", "details": "cited from earlier work"}, "[3]": {"test_system": "patients with Dravet syndrome", "details": "add-on (adjunctive) agent; cited from earlier work"}, "[4]": {"details": "in vivo; cited from earlier work"}, "[5]": {"details": "oral administration; cited from earlier work"}, "DBA mice": {"test_system": "DBA mice", "details": "cited from earlier work; for seizure-induced respiratory failure and death in DBA mice: dose-dependent manner"}},
  "note": "Entries after “also recorded” stand apart in the source; their conditions may differ.",
  "data": [
    {"smiles": "CCNC(C)Cc1cccc(C(F)(F)F)c1", "note": "(racemic) [FFA, 3-trifluoromethyl-N-ethylamphetamine]", "values": [
      {"measurement": "affinity for 5-HT2B receptor", "setting": "5-HT2B receptor", "value": "high affinity"},
      {"measurement": "action at the 5-HT4 receptor, concluded from reversal by GR125487", "setting": "[1]; conclusion from antagonist study in DBA/1 mice", "value": "agonist"},
      {"measurement": "incidence of S-IRA", "setting": "[2]; FFA 5 mg/kg i.p.", "value": "not affected"},
      {"measurement": "incidence of S-IRA", "setting": "[2]; FFA 10 mg/kg i.p., starting at 8 h, vs saline treated controls", "value": "significant reduction"},
      {"measurement": "incidence of S-IRA", "setting": "[2]; FFA 15 mg/kg (n=73) vs saline (n=38), FIGS. 1C-1D", "value": "reduction"},
      {"measurement": "incidence of S-IRA", "setting": "[2]; FFA 15 mg/kg i.p., starting at 8 h, vs saline treated controls", "value": "significant reduction"},
      {"measurement": "return of tonic AGSz and S-IRA susceptibility (time after FFA)", "setting": "[2]; FFA 20 mg/kg", "value": "approximately 48 h"},
      {"measurement": "incidence of S-IRA", "setting": "[2]; FFA 20 mg/kg i.p., starting at 8 h, vs saline treated controls", "value": "significant reduction"},
      {"measurement": "effect on S-IRA", "setting": "[2]; FFA 10-20 mg/kg", "value": "blocking effect"},
      {"measurement": "mice with significant reduction in the incidence of S-IRA", "setting": "[2]; FFA 10-20 mg/kg, 8 h time point (FIG. 1B)", "value": 100, "unit": "%"},
      {"measurement": "incidence of tonic seizures", "setting": "[2]; FFA i.p., dose not stated", "value": "significantly reduced"},
      {"measurement": "seizure severity / AGSz susceptibility", "setting": "[2]; dose- and time-dependent", "value": "significantly reduced seizure severity or blocked AGSz susceptibility"},
      {"measurement": "affinity for 5-HT2C receptor", "setting": "5-HT2C receptor", "value": "high affinity"},
      {"measurement": "seizure activity (frequency and/or severity)", "setting": "[3]", "value": "significantly reduced"}
    ]},
    {"smiles": "Cc1nccn1CC1CCc2c(c3ccccc3n2C)C1=O", "note": "(stereo not drawn) [Ondansetron]", "values": [
      {"measurement": "reversal of FFA's effect (AGSz severity / S-IRA)", "setting": "[1]; Ondansetron 1-3 mg/kg", "value": "not effective at any dose tested"},
      {"measurement": "reversal of FFA's effect (AGSz severity / S-IRA)", "setting": "[1]; Ondansetron 2-3 mg/kg", "value": "not effective at any dose tested"},
      {"measurement": "reversal of S-IRA blocking effect of FFA (reduction in S-IRA incidence)", "setting": "[1]", "value": "did not reverse"},
      {"measurement": "reversal of anticonvulsant effect of FFA (seizure severity, incidence of tonic seizures)", "setting": "[1]", "value": "did not reverse"}
    ]},
    {"smiles": "CCC1(c2ccccc2)C(=O)NC(=O)NC1=O", "note": "[Phenobarbital]", "values": [
      {"measurement": "half-life", "setting": "[4]", "value": 92, "unit": "h"}
    ]},
    {"smiles": "Cc1nc2sccn2c(=O)c1CCN1CCC(=C(c2ccc(F)cc2)c2ccc(F)cc2)CC1", "note": "[Ritanserin]", "values": [
      {"measurement": "reversal of FFA's anticonvulsant effect against the severity of AGSz", "setting": "[1]; Ritanserin 20 mg/kg", "value": "able to reverse; also recorded: block"},
      {"measurement": "reversal of FFA's anticonvulsant effect against the severity of AGSz", "setting": "[1]; Ritanserin 10-20 mg/kg", "value": "able to reverse"},
      {"measurement": "reversal of FFA's S-IRA blocking effect", "setting": "[1]; Ritanserin 10-20 mg/kg", "value": "not its S-IRA blocking effect"},
      {"measurement": "reversal of S-IRA blocking effect of FFA (reduction in S-IRA incidence)", "setting": "[1]", "value": "reversed"},
      {"measurement": "reversal of anticonvulsant effect of FFA (seizure severity, incidence of tonic seizures)", "setting": "[1]", "value": "reversed"}
    ]},
    {"smiles": "CC1CCN(CC[C@H]2CCCN2S(=O)(=O)c2cccc(O)c2)CC1", "note": "[SB269970]", "values": [
      {"measurement": "reversal of FFA's anticonvulsant effect against the severity of AGSz", "setting": "[1]; SB269970 30 mg/kg and 40 mg/kg", "value": "able to reverse; also recorded: block"},
      {"measurement": "reversal of FFA's S-IRA blocking effect", "setting": "[1]; SB269970 30 mg/kg and 40 mg/kg", "value": "not its S-IRA blocking effect"},
      {"measurement": "reversal of anticonvulsant effect of FFA (seizure severity, incidence of tonic seizures)", "setting": "[1]", "value": "reversed"}
    ]},
    {"smiles": "CC[C@@H](c1cccc(O)c1)[C@@H](C)CN(C)C", "note": "[Tapentadol]", "values": [
      {"measurement": "duration of analgesia", "setting": "[5]", "value": "4 to 6", "unit": "h"},
      {"measurement": "onset of analgesia", "setting": "[5]", "value": "≤ 32", "unit": "min"}
    ]},
    {"smiles": "COc1ccccc1N1CCN(CCN(C(=O)C2CCCCC2)c2ccccn2)CC1", "note": "[WAY100635]", "values": [
      {"measurement": "reversal of FFA's effect (AGSz severity / S-IRA)", "setting": "[1]; WAY100635 0.1-15 mg/kg", "value": "not effective at any dose tested"}
    ]},
    {"smiles": "CNCC[C@@H](Oc1ccccc1C)c1ccccc1", "note": "[atomoxetine]", "values": [
      {"measurement": "seizure-induced respiratory failure and death in DBA mice", "setting": "DBA mice", "value": "prevent"}
    ]},
    {"smiles": "CNCCC(Oc1ccc(C(F)(F)F)cc1)c1ccccc1", "note": "(stereo not drawn) [fluoxetine]", "values": [
      {"measurement": "S-IRA in DBA/1 mice", "setting": "DBA mice; acting via 5-HT3 receptors", "value": "can prevent"},
      {"measurement": "seizure-induced respiratory failure and death in DBA mice", "setting": "DBA mice", "value": "prevent"}
    ]},
    {"smiles": "COCCCC/C(=N\\OCCN)c1ccc(C(F)(F)F)cc1", "note": "[fluvoxamine]", "values": [
      {"measurement": "seizure-induced respiratory failure and death in DBA mice", "setting": "DBA mice", "value": "prevent"}
    ]},
    {"smiles": "CN[C@H]1CC[C@@H](c2ccc(Cl)c(Cl)c2)c2ccccc21", "note": "[sertraline]", "values": [
      {"measurement": "seizure-induced respiratory failure and death in DBA mice", "setting": "DBA mice", "value": "prevent"}
    ]},
    {"smiles": "COc1ccc(C(CN(C)C)C2(O)CCCCC2)cc1", "note": "(stereo not drawn) [venlafaxine]", "values": [
      {"measurement": "seizure-induced respiratory failure and death in DBA mice", "setting": "DBA mice", "value": "prevent"}
    ]}
  ]
}
